For one experiment, the system named is Hyperlipedemic rat. Nature of the experiment: Lipid Reducing Activity (cholesterol/bile acid fed hyperlipidemic rats, serum lipids). The following applies: 100 mg/kg/day p.o., 4 days; for HDL-C/LDL-C (cont. = 1): relative to control; for HDL-Chol** (cont. = 1): relative to control = 1. It counts as in vivo, male Sprague-Dawley rats. How it is done: Feed containing 1.5% cholesterol and 0.5% bile acid was given to male Sprague-Dawley rats aging 4 weeks old after birth for 7 days. A suspension of the compound of the present invention in a 0.5% aqueous methyl cellulose solution was administered daily via oral catheter for 4 days. After fastening overnight, blood was collected under ether anesthesia to determine the quantities of the total HDL and cholesterol in serum. The measurements of cholesterol and HDL were performed in accordance with the method described in Schettler, G. & Hussel; Arbetsmed. Sozialmed. Praventived., 10, 25 (1975) and the method described in T. T. Ishikawa et al.; Lipids, 11, 628 (1976), respectively.

Experiment [1] relates to platelet aggregation induced by arachidonic acid. Nature of the experiment: Platelet Aggregation Prevention Activity (arachidonic acid induced, platelet rich plasma). It counts as cell-based, Nippon white rabbit. The settings on record: compound 100 μM; arachidonic acid final concentration 0.2 mM; rabbit PRP. On the procedure:
Platelet rich plasma (PRP) and platelet poor plasma (PPP) were prepared from venous blood of Nippon white rabbit. The platelet aggregation activity was measured in accordance with the method described in Born, G. V. R.; Nature, 194, 927 (1962) and the activity of preventing platelet agglutination of the compound against platelet aggregation induced by arachidonic acid (final concentration, 0.2 mM) was determined with an Aggrigometer (made by Payton Co.).

For the molecule `CCOC(=O)C(C)(C)CCCCCOc1ccc(-c2csc(-c3cccnc3)n2)cc1` [Example 2, ethyl 2,2-dimethyl-7-[p-[2-(3-pyridyl)-4-thiazolyl]phenoxy]heptanoate], in the experiment with Hyperlipedemic rat, the “Reduction Rate of T* and Chol** (*triglyceride, **cholesterol)” value (from here on “Reduction Rate of T* and Chol**”) worked out at 59%; the “HDL-C/LDL-C (cont. = 1)” value worked out at 22; the “HDL-Chol** (cont. = 1)” value came out at 7.62. In addition, the “Platelet Aggregation inhibition (%) A.A.” value in experiment [1] came out at 16%.
With `CCOC(=O)C(C)(C)CCCOc1ccc(-c2csc(C)n2)cc1` [Example 5, ethyl 5-[p-(2-methyl-4-thiazolyl)phenoxy]-2,2-dimethylpentanoate], in the experiment with Hyperlipedemic rat, the “Reduction Rate of T* and Chol**” value stood at 69%; the “HDL-C/LDL-C (cont. = 1)” value is on record as 8.00; the “HDL-Chol** (cont. = 1)” value came out at 1.54. The “Platelet Aggregation inhibition (%) A.A.” value in experiment [1] was 50%.
On to `CCOC(=O)C(C)(C)CCCCOc1ccc(OCCCCCn2ccnc2)cc1` [Example 30, ethyl 6-[p-[5-(1-imidazolyl)pentyloxy]phenoxy]-2,2-dimethylhexanoate], for which, in the experiment on Hyperlipedemic rat, the “Reduction Rate of T* and Chol**” value is given as 48%; the “HDL-C/LDL-C (cont. = 1)” value is on record as 5.00; the “HDL-Chol** (cont. = 1)” value is given as 1.78. The “Platelet Aggregation inhibition (%) A.A.” value in experiment [1] came out at 57%.
Turning to `CCOC(=O)C(C)(C)CCCCOc1ccc(NC(=O)CCCn2ccnc2)cc1` [Example 35, Ethyl-6-[p-[4-(1-imidazolyl)-butyramido]phenoxy]-2,2-dimethylhexanoate], in the experiment on Hyperlipedemic rat, the “Reduction Rate of T* and Chol**” value turned out to be 52%; the “HDL-C/LDL-C (cont. = 1)” value was 5.4; the “HDL-Chol** (cont. = 1)” value stood at 2.49. In addition, in experiment [1], the “Platelet Aggregation inhibition (%) A.A.” value is listed as 7%.
The corresponding values for `CCOC(=O)C(C)(C)CCCCCOc1ccc(NC(=O)CCCCn2ccnc2)cc1` [Example 39] are 23%, 4.1, 3.11 and 100%.

The record behind these values is patent US4794113A, “Imidazolyl phenoxy compounds and method of use” (Yamanouchi Pharmaceutical Co., Ltd., priority 1983, dated 1988).
